The results in this text go back to patent US20200329707A1, “PYRAZOLAMIDE COMPOUND HAVING INSECTICIDAL ACTIVITY AND USE THEREOF” (JIANGSU FLAG CHEMICAL INDUSTRY CO., LTD., priority 2017, published 2020).

Format in all cases: in vivo
One assay concerns Helicoverpa armigera. In words: Insecticidal effect on Helicoverpa armigera, immersed cabbage leaf discs in 24-well plate. As to conditions: foliar, 72 h, read-out: Insecticidal activity (%) on Helicoverpa armigera (mortality %). The procedure: (§1) The test reagents were all individually dissolved in a mixed solvent of acetone:[…] (1:1) to give a 1000 mg/L solution. 1% Tween-80 was added as an emulsifier to each solution. These solutions were then diluted with 1% Tween-20 solution in water to give desired concentrations of test solutions. An aqueous solution containing 1% Tween-20 was used as a control.
Third instar larvae of Helicoverpa armigera were used, and the insecticidal effect test was carried out by feeding with leaves immersed with various compounds. The cabbage leaves that had not been exposed to insecticides were punched into leaf discs having a diameter of […]. The leaf discs were immersed in each compound solution for 30 s. Then the leaf discs were placed on absorbent paper and air-dried until there were no obvious water stains on the leaf discs. A washed 24-well plate was prepared, and about 1 ml of water agar medium was fed to each well. After solidification, the treated leaf discs were placed on the medium in the 24-well plate, and then 1 3rd-instar larva of Helicoverpa armigera was inoculated into each well. The 24-well plate was covered after inoculation, placed in an insect cultivating chamber at 25° C. with a 16-h-light/8-h-dark photoperiod. The number of deaths in 3 days was investigated, and the mortality was calculated.

The test system of another assay is Frankliniella intonsa. In words: Insecticidal effect on Frankliniella intonsa, treated filter paper in petri dish. As to conditions: 60 ppm reagent solution; nymphs; 72 hrs. The protocol: as §1
On the bottom of a glass petri dish with a diameter of 6 cm, a piece of filter paper with the same diameter was laid. 1 mL of the reagent solution was drawn by a pipette and uniformly dripped on the filter paper. After the acetone was volatilized, Nymphs of Frankliniella intonsa were transferred from Bombax ceiba with a brush pen to the filter paper in the petri dish. After 0.5-1 h when the insect body was fully covered with the reagent, 3 cm-long petals of Bombax ceiba were placed and the Petri dish were covered. 3 replicates were set for each treatment. After the insects were inoculated, the petri dish was placed in an insect-cultivating chamber at 25° C. with a 16-h-light/8-h-dark photoperiod. 72 hrs after the insects were inoculated, the deaths of Frankliniella intonsa were investigated to calculate the mortality.

Another assay relates to Spodoptera litura. The assay can be described thus: Insecticidal effect on Spodoptera litura, feeding with immersed cabbage leaf discs. Conditions: 40 ppm reagent solution; 3rd instar larvae; deaths in 5 days. The procedure: as §1
Third instar larvae of Spodoptera litura were used, and the insecticidal effect test was carried out by feeding with leaves immersed with various compounds. The cabbage leaves that had not been exposed to insecticides were cut into leaf discs of about 40 square-mm with scissors. The leaf discs were immersed in each compound solution for 30 s. Then the leaf discs were placed on absorbent paper and air-dried until there were no obvious water stains on the leaf discs. The leaf discs soaked with the reagents were placed in a petri dish (7 cm), each petri dish having 3 leaf discs. The 3rd instar larvae of Spodoptera litura raised on the indoor cabbage plants were gently picked up with a pen brush and placed on the leaf discs in the petri dish, each petri dish having 10-15 insects. After the insects were inoculated, the petri dish was covered, and placed in an insect-cultivating chamber at 25° C. with a 16-h-light/8-h-dark photoperiod. The number of deaths in 5 days was investigated, and the mortality was calculated.

For orientation: mortality means the percentage killed. On to `CC(C)(NC(=O)c1cc(Cl)cc(Cl)c1NC(=O)c1cc(Br)nn1-c1ncccc1Cl)C(N)=O` [KC2], for which, in the assay on Helicoverpa armigera, the mortality at 5 ppm stood at 16.7% and the mortality at 15 ppm was determined as 37.5%.
In the case of `Cc1cc(Cl)cc(C(=O)NC(C)(C)C(N)=O)c1NC(=O)c1cc(Br)nn1-c1ncccc1Cl` [Compound 1.1, N-(2-N-((1-amino-2-methyl-1-acylpropan-2-yl)-formyl)-4-chloro-6-methylphenyl)-1-(3-chloropyridin-2-yl)-3-bromo-1H-pyrazol-5-carboxamide], the “control effect on Frankliniella intonsa” value with Frankliniella intonsa is given as “more than 80%”. The “control effect on Spodoptera litura” value with Spodoptera litura is “more than 80%”. Moreover, in the assay with Helicoverpa armigera, the mortality at 5 ppm was found to be 75% and the mortality at 15 ppm worked out at 87.5%.
In the case of `CC(C)(NC(=O)c1cc(Cl)cc(Cl)c1NC(=O)c1cc(Cl)nn1-c1ncccc1Cl)C(N)=O` [KC1], in the assay on Helicoverpa armigera, the mortality at 5 ppm stood at 10% and the mortality at 15 ppm amounted to 46.7%.
